# Like-named read-outs stand apart in the source and are kept apart here. Positions of bridges follow the written chain, without caps; N, C: chain ends. Non-standard residues stand in square brackets, D forms with d. Residues, ends and D or L forms follow the SMILES beside them. *: point of attachment. DOTA = O=C(O)CN1CCN(CC(=O)O)CCN(CC(=O)*)CCN(CC(=O)O)CC1; X1 = O=C(Cn1cc(COCC(CO)(CO)CI)nn1)*; Nle = CCCC[C@H](N)C(=O)O
# What was measured:
# [1] = Log D7.4 measurements (1-octanol / phosphate buffer); assay type: physicochemical; conditions: 1-octanol / 25 mM phosphate buffer pH 7.4; mean ± SD
# Experimental: This experiment was performed according to a previously reported procedure with slight modifications. In brief, an aliquot of radiolabeled GGNle-CycMSHhex analogs (50 kBq/5 µL) was mixed with equal amounts (1.5 mL) of 1-octanol and 25 mM phosphate buffer (pH 7.4). The mixture was vortexed for 1 min and then allowed to stand for 1 min. After repeating the procedure five times, the mixture was centrifuged at 1,500 g for 10 min. Aliquots of 0.5 mL were taken from each phase and their radioactivity was measured with an auto-well γ counter (Wizard 3, PerkinElmer). The partition coefficient was determined by calculating the ratio of counts per minute in the 1-octanol phase to that in the buffer phase and expressed as a common logarithm. The results represent the mean ± SD for each compound.
# [2] = Biodistribution in tumor-bearing mice; assay type: in vivo; conditions: C57BL/6, mouse, iv, total radioactivity, 3 h after i.v. injection, Suppl. Table 1, mean ± SD, n = 4; for tissue uptake dose at 3 h: 7.4 kBq
# Experimental: The animal experiments were conducted according to a protocol reviewed and approved by the Chiba University Animal Care Committee (Permit No. 4–183). Five-week-old C57BL/6 mice were subcutaneously xenografted in their right hind legs by injecting B16F10 cells (1.0 × 10^6 cells) suspended in Matrigel (BD Biosciences). When the tumor diameter achieved approximately 10 mm, the mice were subjected to biodistribution studies. Groups of four mice were sacrificed at each postinjection time point. A solution of each radiohalogenated GGNle-CycMSHhex analog or [^111In]In-DOTA-GGNle-CycMSHhex (7.4 kBq/100 µL) was injected into the tumor-bearing mice via the tail vein, and the mice were sacrificed at 3 h postinjection. A solution of [^125I]NpG-GGN4b (7.4 kBq) or [^211At]NpG-GGN4c (40 or 100 kBq) was also injected, and the mice were sacrificed at […] postinjection. Injected radioactivity of [^211At]NpG-GGN4c was 40 kBq for 1 and 3 h postinjection groups and 100 kBq for 24 postinjection group. Blocking studies were performed by co-injection of NDP-MSH (10 µg per mouse) simultaneously with [^125I]NpG-GGN4b (7.4 kBq) or [^211At]NpG-GGN4c (40 kBq), and the mice were sacrificed at 3 h postinjection. The organs of interest were removed, weighed, and radioactivity was estimated using an auto-well gamma counter.
# [3] = molecular target: T1, MC1R (B16F10 melanoma cells) (Mus musculus, UniProt Q01727); experiment: Receptor binding assay: competitive inhibition of [^125I]I-Tyr^2-NDP-MSH bound to B16F10 melanoma cells; conditions: competition with [^125I]I-Tyr^2-NDP-MSH, 37 °C, 1 h, brackets = 95% confidence interval
# T1 construct: endogenous in cells; host or cells: B16F10 melanoma cells (Cell Resource Center for Biomedical Research, Tohoku University)
# T1 sequence (Q01727 whole entry): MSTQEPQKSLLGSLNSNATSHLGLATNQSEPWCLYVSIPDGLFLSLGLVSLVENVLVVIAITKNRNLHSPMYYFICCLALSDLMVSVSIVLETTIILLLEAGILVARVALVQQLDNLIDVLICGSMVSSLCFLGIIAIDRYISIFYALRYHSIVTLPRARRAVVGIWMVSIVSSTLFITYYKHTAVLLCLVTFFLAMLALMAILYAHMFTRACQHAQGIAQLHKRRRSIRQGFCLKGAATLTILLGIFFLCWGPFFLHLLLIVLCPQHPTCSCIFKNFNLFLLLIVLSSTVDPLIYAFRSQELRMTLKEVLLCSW
# Experimental: B16F10 cells were obtained from the Cell Resource Center for Biomedical Research (Institute of Development, Aging and Cancer Tohoku University). B16F10 cells were cultivated in RPMI 1640 medium (Nacalai Tesque) supplemented with 10% fetal bovine serum (Thermo Scientific) in a humidified atmosphere containing 5% carbon dioxide at 37 °C. B16F10 cells (5 × 10^5 cells/well) were seeded in a 24-well poly-D-lysine coated plate (Corning) overnight. After the growth medium was removed, a reaction buffer containing 4.8 mg/mL HEPES, 100 U/mL penicillin, 1 mg/mL streptomycin and 2 mg/mL bovine serum albumin was added. Approximately 30,000 counts per minute of [^125I]I-Tyr^2-NDP-MSH and 0.5 pM to 5 µM of the peptides (NpG-GGN1a–NpG-GGN4a and In-DOTA-GGNle-CycMSHhex) were added to each well. The reaction mixture was incubated at 37 °C for 1 h. After incubation, the binding medium was removed, and the cells were rinsed twice with ice-cold phosphate-buffered saline (PBS). The cells were harvested using 0.25% trypsin solution, and the radioactivity was determined using an auto-well gamma counter. Ki values were calculated using GraphPad Prism 8.4.3 (GraphPad Software).
smiles,measurement,setting,value
"CCCC[C@H](NC(=O)CNC(=O)CNC(=O)CN1CCN(CC(=O)O)CCN(CC(=O)O)CCN(CC(=O)O)CC1)C(=O)N[C@H]1CC(=O)NCCCC[C@@H](C(N)=O)NC(=O)[C@H](Cc2c[nH]c3ccccc23)NC(=O)[C@H](CCCNC(=N)N)NC(=O)[C@@H](Cc2ccccc2)NC(=O)[C@H](Cc2c[nH]cn2)NC1=O [[^111In]In-DOTA-GGNle-CycMSHhex, metal not drawn] ({DOTA}-GG[Nle]DH[dF]RWK-NH2; lactam 4-9)",logD,[1],-3.45 ± 0.17
same,tissue uptake dose at 3 h,"[2]; intestine, read-out: Biodistribution of radioactivity, Intestine",0.6 ± 0.15 %ID
same,tissue uptake dose at 3 h,"[2]; stomach, read-out: Biodistribution of radioactivity, Stomach",0.2 ± 0.04 %ID
same,tissue uptake dose at 3 h,"[2]; thyroid, read-out: Biodistribution of radioactivity, Thyroid",0.01 %ID
same,tissue uptake at 3 h,"[2]; tumor, 7.4 kBq/100 µL",16.5 ± 1.89 %ID/g
CCCC[C@H](NC(=O)CNC(=O)CNC(=O)[C@@H](CCC(=O)O)NC(=O)[C@@H](CCC(=O)O)NC(=O)Cn1cc(COCC(CO)(CO)CI)nn1)C(=O)N[C@H]1CC(=O)NCCCC[C@@H](C(N)=O)NC(=O)[C@H](Cc2c[nH]c3ccccc23)NC(=O)[C@H](CCCNC(=N)N)NC(=O)[C@@H](Cc2ccccc2)NC(=O)[C@H](Cc2c[nH]cn2)NC1=O [NpG-GGN3a] (X1-[dE][dE]GG[Nle]DH[dF]RWK-NH2; lactam 6-11),Ki,[3],14.9 nM
CCCC[C@H](NC(=O)CNC(=O)CNC(=O)[C@@H](CCCNC(=N)N)NC(=O)[C@@H](CCC(=O)O)NC(=O)Cn1cc(COCC(CO)(CO)CI)nn1)C(=O)N[C@H]1CC(=O)NCCCC[C@@H](C(N)=O)NC(=O)[C@H](Cc2c[nH]c3ccccc23)NC(=O)[C@H](CCCNC(=N)N)NC(=O)[C@@H](Cc2ccccc2)NC(=O)[C@H](Cc2c[nH]cn2)NC1=O [NpG-GGN4a] (X1-[dE][dR]GG[Nle]DH[dF]RWK-NH2; lactam 6-11),Ki,[3],1.37 nM
CCCC[C@H](NC(=O)CNC(=O)CNC(=O)[C@@H](CCC(=O)O)NC(=O)Cn1cc(COCC(CO)(CO)CI)nn1)C(=O)N[C@H]1CC(=O)NCCCC[C@@H](C(N)=O)NC(=O)[C@H](Cc2c[nH]c3ccccc23)NC(=O)[C@H](CCCNC(=N)N)NC(=O)[C@@H](Cc2ccccc2)NC(=O)[C@H](Cc2c[nH]cn2)NC1=O [NpG-GGN2a] (X1-[dE]GG[Nle]DH[dF]RWK-NH2; lactam 5-10),Ki,[3],3.24 nM
CCCC[C@H](NC(=O)CNC(=O)CNC(=O)Cn1cc(COCC(CO)(CO)CI)nn1)C(=O)N[C@H]1CC(=O)NCCCC[C@@H](C(N)=O)NC(=O)[C@H](Cc2c[nH]c3ccccc23)NC(=O)[C@H](CCCNC(=N)N)NC(=O)[C@@H](Cc2ccccc2)NC(=O)[C@H](Cc2c[nH]cn2)NC1=O [NpG-GGN1a] (X1-GG[Nle]DH[dF]RWK-NH2; lactam 4-9),Ki,[3],2.81 nM
